Measurements taken from article PMC5021139 (Journal of Neuroendocrinology, 2016).
*1 amine or outer side, *2 acyl side, *3 side chain or, on linkers, in order; H or OH if unused. Where a SMILES comes first, the peptide text is derived from it. Bridges are numbered along the chain shown (N, C = ends). Where no end group is shown, it is not given here. X1 = O=C(CCC[*:2])[*:1]

Key:
OXTR = conditions: cited from earlier work
[1] = molecular target: T1, human oxytocin receptor (hOXTR) (Homo sapiens, UniProt P30559)
[2] = cited from earlier work
[3] = tested on: aminopeptidase and disulphidase; conditions: cited from earlier work
[4] = molecular target: T1, human oxytocin receptor (hOXTR); assay: cell-based; conditions: HEK293, read-out: maximal activation (BRETmax) relative to oxytocin
[5] = molecular target: T1, human oxytocin receptor (hOXTR); conditions: carbetocin vs oxytocin
[6] = design: method as in PMID 6831225; conditions: cited from earlier work
[7] = design: method as in PMID 6831225; conditions: parenteral administration; cited from earlier work
[8] = tested on: human vasopressin V1b receptor (V1bR); assay: BRET2 G-protein activation at V1bR in HEK293 cells; conditions: 10 μM ligand, 2 min, Gq, Gi1, Gi2, Gi3, Go, minimum of three experiments
[9] = tested on: human vasopressin V1a receptor (V1aR); assay: BRET2 G-protein activation at V1aR in HEK293 cells; type: cell-based; conditions: 10 μM ligand, 2 min, Gq, Gi1, Gi2, Gi3, Go, minimum of three experiments
From the text: (A) V1aR or (B) V1bR were transfected together with GFP10‐Gγ2, Gβ1 and different Rluc8‐tagged Gα subunits: Gq, Gi1, Gi2, Gi3, Go.

[10] = tested on: somatostatin receptor (SST2R); design: method as in PMID 25012983; conditions: functioning gastroenteropancreatic neuroendocrine tumours; cited from earlier work
[11] = molecular target: T2, human oxytocin receptor fused to Renilla luciferase (hOXTR‐Rluc) (human, UniProt P30559 1-389); assay: FRET or BRET; kinetic BRET1 in HEK293 cells co-transfected with hOXTR-Rluc (donor) and β-arrestin1- or β-arrestin2-Venus (acceptor); cells in PBS with 0.1% glucose at room temperature; coelenterazine h added 8 min before oxytocin (10 μM); read in real time for 5 min; conditions: partners not purified
T2 construct: oxytocin receptor, human; Rluc introduced at the C-terminus; source: HEK293, transfected (PEI), in living cells; not shown: Rluc (Renilla luciferase), C-terminal, kept
T2 sequence (looked up): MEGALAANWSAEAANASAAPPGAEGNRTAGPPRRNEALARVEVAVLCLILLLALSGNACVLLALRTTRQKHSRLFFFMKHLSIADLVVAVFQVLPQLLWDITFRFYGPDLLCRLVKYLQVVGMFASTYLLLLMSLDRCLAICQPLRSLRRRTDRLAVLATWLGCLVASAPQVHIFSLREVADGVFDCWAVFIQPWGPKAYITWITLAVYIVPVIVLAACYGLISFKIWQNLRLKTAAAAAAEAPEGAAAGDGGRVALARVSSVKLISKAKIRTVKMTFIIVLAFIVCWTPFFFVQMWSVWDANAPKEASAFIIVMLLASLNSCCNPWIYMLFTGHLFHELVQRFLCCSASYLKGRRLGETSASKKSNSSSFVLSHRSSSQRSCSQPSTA

atosiban
G-protein functional selectivity (OXTR): a Gi3 functional selective agonists

carbetocin (deamino‐1‐monocarba‐(2‐O‐methyltyrosine)‐oxytocin) (peptide)
EC50 of Gq activation (BRET2 between Gαq-Rluc8 and GFP10-Gγ2) in HEK293 cells expressing hOXTR, 10^-13 to 10^-5 M, 2 min [1]: 48.8 nM
maximal activation (BRETmax) of the Gq biosensor in HEK293 cells expressing hOXTR, against that of oxytocin (% of oxytocin) [1]: 45

CC[C@H](C)[C@@H]1NC(=O)[C@H](Cc2ccc(OC)cc2)NC(=O)CCCSC[C@@H](C(=O)N2CCC[C@H]2C(=O)N[C@@H](CC(C)C)C(=O)NCC(N)=O)NC(=O)[C@H](CC(N)=O)NC(=O)[C@H](CCC(N)=O)NC1=O [carbetocin, deamino‐1‐monocarba‐(2‐O‐methyltyrosine)‐oxytocin] (Y(Me)IQNCPLG-NH2; linker N-5 via X1)
half-life in the peripheral circulation [2]: 85 to 100 min
protection from aminopeptidase degradation and disulphidase cleavage [3]: very effective protection of carbetocin from aminopeptidase degradation and disulphidase cleavage
Emax [4]: 45 ± 6%
reduction in maximal OXTR/Gq activation compared to oxytocin [5]: 50%

CC[C@H](C)[C@@H]1NC(=O)[C@H](Cc2ccc(O)cc2)NC(=O)[C@@H](N)CSSC[C@@H](C(=O)N2CCC[C@H]2C(=O)N[C@@H](CC(C)C)C(=O)NCC(N)=O)NC(=O)[C@H](CC(N)=O)NC(=O)[C@H](CCC(N)=O)NC1=O [oxytocin]
half-life in the peripheral circulation [2]: 3.4 min
half-life in the plasma [2]: short half‐life in the plasma
half-life in the cerebrospinal fluid [6]: short half‐life
blood-brain barrier crossing [7]: does not cross the blood–brain barrier in a significant amount

arginine vasopressin: neuropeptide arginine vasopressin, obtained from Bachem (CYFQNCPRG; not fully specified (C-terminus, bridges); cysteine pairing not given here; UniProt P01185 20-28, looked up)
V1bR activation, all G-proteins tested [8]: significantly promoted the coupling/activation
V1aR activation, all G-proteins tested [9]: significantly promoted the coupling/activation

octreotide
antisecretory potency on long-term treatment [10]: antisecretory potency decreased with long‐term treatment as a consequence of the persistent internalisation of SST2R

B1: β‐arrestin1‐Venus (natural protein, UniProt P49407 1-418, looked up)
chain: MGDKGTRVFKKASPNGKLTVYLGKRDFVDHIDLVDPVDGVVLVDPEYLKERRVYVTLTCAFRYGREDLDVLGLTFRKDLFVANVQSFPPAPEDKKPLTRLQERLIKKLGEHAYPFTFEIPPNLPCSVTLQPGPEDTGKACGVDYEVKAFCAENLEEKIHKRNSVRLVIRKVQYAPERPGPQPTAETTRQFLMSDKPLHLEASLDKEIYYHGEPISVNVHVTNNTNKTVKKIKISVRQYADICLFNTAQYKCPVAMEEADDTVAPSSTFCKVYTLTPFLANNREKRGLALDGKLKHEDTNLASSTLLREGANREILGIIVSYKVKVKLVVSRGGLLGDLASSDVAVELPFTLMHPKPKEEPPHREVPENETPVDTNLIELDTNDDDIVFEDFARQRLKGMKDDKEEEEDGTGSPQLNNR
notes: β-arrestin1; Venus (yellow variant of GFP) fused to its C-terminus; vector provided by Professor M. Locati; source: HEK293, transfected (PEI), in living cells; not shown: Venus, C-terminal, kept
t1/2 of the oxytocin-induced increase of the BRET ratio [11]: 1.98 min
